One series deals with T1, 5-HT7 receptor (Homo sapiens, UniProt P34969).
T1 construct: expressed in transfected cells
The series can be described thus: 5-HT7 receptor binding experiment. The conditions noted are these: human cloned receptors; ligand 3H-LSD 1.0 nM; non-specific clozapine 25 μM. The procedure:
For the determination of 5-HT7 receptor binding human cloned receptors were used. The α1 receptor binding was determined from isolated frontal cortex preparation of male Wistar rats weighing 120-200 g. The 5-HT uptake measurements were performed on samples from isolated cortex of male rats. The protein contents of membrane preparations were determined by the method of Lowry (1951).
In the course of 5-HT7 and α1 receptor binding studies the ligands were ^3H-lizergic acid diethyl amide (LSD) (1.0 nM) and ^3H-prazosine (0.3 nM). Clozapine (25 μM) and prazosine (1 μM) were used for the measurement of non-specific bindings. The α1 binding studies were performed according to the methods of Reader and Greengrass (Reader, T. A., Briere, R., Grondin, L.: J. Neural Transm. 68, p. 79 (1987); Greengrass, P., Brenner, R.: Eur. J. Pharmacol. 55, p. 323 (1979)). In the serotonin uptake inhibition studies the ligand was tritiated serotonin, the non-specific ligand was fluoxetine (100 μM). On the test results Ki values were calculated.

Where a name gives a salt, the structure may show the parent alone.

T1 sequence (P34969 whole entry): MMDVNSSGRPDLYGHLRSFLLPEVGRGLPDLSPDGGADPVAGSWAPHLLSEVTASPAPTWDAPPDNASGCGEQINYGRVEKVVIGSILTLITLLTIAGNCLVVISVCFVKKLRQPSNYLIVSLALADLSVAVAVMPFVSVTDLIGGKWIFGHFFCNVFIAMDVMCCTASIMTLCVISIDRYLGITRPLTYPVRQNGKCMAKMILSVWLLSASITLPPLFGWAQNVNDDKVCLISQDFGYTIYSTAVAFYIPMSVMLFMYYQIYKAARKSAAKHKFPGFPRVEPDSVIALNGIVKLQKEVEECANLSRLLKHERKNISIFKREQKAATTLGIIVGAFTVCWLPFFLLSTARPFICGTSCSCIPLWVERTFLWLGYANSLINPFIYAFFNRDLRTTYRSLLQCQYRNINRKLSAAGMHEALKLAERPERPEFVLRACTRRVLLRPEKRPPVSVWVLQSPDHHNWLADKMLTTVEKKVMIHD

Turning to `O=C1Nc2ccc(F)cc2C1CCCCN1CCN(c2ccccc2)CC1` (stereo not drawn), the melting point is 140 to 144 °C. Still for that read-out and setting: as for `O=C1Nc2ccc(F)cc2C1CCCCN1CCN(c2cccc(Cl)c2)CC1` (stereo not drawn) (as salt: hydrochloride) [Example 6, 3-{4-[4-(3-Chlorophenyl)-piperazin-1-yl]-butyl}-5-fluoro-1,3-dihydro-2H-indol-2-one monohydrochloride], the figure is 180 to 184 °C; as for `O=C1Nc2ccc(F)cc2C1CCCCN1CCN(c2ccc(Cl)cc2)CC1` (stereo not drawn) (as salt: hydrochloride) [Example 7, 3-{4-[4-(4-Chlorophenyl)-piperazin-1-yl]-butyl}-5-fluoro-1,3-dihydro-2H-indol-2-one monohydrochloride], 193 to 196 °C. Regarding `O=C1Nc2cc(F)ccc2C1CCCCN1CCN(c2ccc(Cl)cc2)CC1` (stereo not drawn) (as salt: hydrochloride) [Example 8, 3-{4-[4-(4-Chlorophenyl)-piperazin-1-yl]-butyl}-6-fluoro-1,3-dihydro-2H-indol-2-one monohydrochloride], the melting point was in the range of 149 to 151 °C. On the same count and under the same terms, as for `O=C1Nc2ccccc2C1CCCCN1CCN(c2ccc(F)c(Cl)c2)CC1` (stereo not drawn) (as salt: hydrochloride) [Example 14, 3-{4-[4-(3-Chloro-4-fluorophenyl)-piperazin-1-yl]-butyl}-1,3-dihydro-2H-indol-2-one monohydrochloride], the figure is 180 to 183 °C; as for `O=C1Nc2ccccc2C1CCCCN1CCN(c2ccc(Cl)c(C(F)(F)F)c2)CC1` (stereo not drawn) (as salt: hydrochloride) [Example 15, 3-{4-[4-(4-Chloro-3-trifluoromethylphenyl)-piperazin-1-yl]-butyl}-1,3-dihydro-2H-indol-2-one monohydrochloride], 123 to 125 °C.

In turn, `O=C1Nc2ccc(F)cc2C1CCCCN1CCN(c2cccc(Cl)c2)CC1` (stereo not drawn) [Example 6, 3-{4-[4-(3-Chlorophenyl)-piperazin-1-yl]-butyl}-5-fluoro-1,3-dihydro-2H-indol-2-one monohydrochloride] gave a Ki on 5-HT7 receptor of less than 100 µM. Consider `O=C1Nc2ccc(F)cc2C1CCCCN1CCN(c2ccc(Cl)cc2)CC1` (stereo not drawn) [Example 7, 3-{4-[4-(4-Chlorophenyl)-piperazin-1-yl]-butyl}-5-fluoro-1,3-dihydro-2H-indol-2-one monohydrochloride], for which, on 5-HT7 receptor, the Ki is less than 100 µM. `O=C1Nc2cc(F)ccc2C1CCCCN1CCN(c2ccc(Cl)cc2)CC1` (stereo not drawn) [Example 8, 3-{4-[4-(4-Chlorophenyl)-piperazin-1-yl]-butyl}-6-fluoro-1,3-dihydro-2H-indol-2-one monohydrochloride] had an inhibitory constant (Ki) at 5-HT7 receptor of less than 100 µM. As for `Cc1ccc2c(c1)C(CCCCN1CCN(c3cccc(Cl)c3)CC1)C(=O)N2` (stereo not drawn) [Example 9, 3-{4-[4-(3-Chlorophenyl)-piperazin-1-yl]-butyl}-5-methyl-1,3-dihydro-2H-indol-2-one], the melting point was 122 to 124 °C. In addition, at 5-HT7 receptor, the Ki was less than 100 µM. In the same order, the values of `Cc1ccc2c(c1)C(CCCCN1CCN(c3ccc(Cl)cc3)CC1)C(=O)N2` (stereo not drawn) [Example 10, 3-{4-[4-(4-Chlorophenyl)-piperazin-1-yl]-butyl}-5-methyl-1,3-dihydro-2H-indol-2-one] are 159 to 161 °C and less than 100 µM. `O=C1Nc2ccccc2C1CCCCN1CCN(c2ccc(F)cc2)CC1` (stereo not drawn) [Example 11, 3-{4-[4-(4-Fluorophenyl)-piperazin-1-yl]-butyl}-1,3-dihydro-2H-indol-2-one] yielded a melting point of 113 to 115 °C. Also, at 5-HT7 receptor, the Ki is less than 100 µM. As to `O=C1Nc2ccccc2C1CCCCN1CCN(c2ccc(Cl)c(Cl)c2)CC1` (stereo not drawn) [Example 12, 3-{4-[4-(3,4-Dichlorophenyl)-piperazin-1-yl]-butyl}-1,3-dihydro-2H-indol-2-one], the melting point lay in the range of 112 to 114 °C. This compound also registered a Ki on 5-HT7 receptor of less than 100 µM. As to `O=C1Nc2ccccc2C1CCCCN1CCN(c2ccc(F)c(Cl)c2)CC1` (stereo not drawn) [Example 14, 3-{4-[4-(3-Chloro-4-fluorophenyl)-piperazin-1-yl]-butyl}-1,3-dihydro-2H-indol-2-one monohydrochloride], the Ki on 5-HT7 receptor is less than 100 µM. Same read-out and setting: as for `O=C1Nc2ccccc2C1CCCCN1CCN(c2ccc(Cl)c(C(F)(F)F)c2)CC1` (stereo not drawn) [Example 15, 3-{4-[4-(4-Chloro-3-trifluoromethylphenyl)-piperazin-1-yl]-butyl}-1,3-dihydro-2H-indol-2-one monohydrochloride], the figure is less than 100 µM. The compound `O=C1Nc2ccc(F)cc2C1CCCCN1CCN(c2ccc(F)cc2)CC1` (stereo not drawn) [Example 16, 5-Fluoro-3-{4-[4-(4-fluorophenyl)-piperazin-1-yl]-butyl}-1,3-dihydro-2H-indol-2-one] registered a melting point of 135 to 137 °C. For the same compound, the Ki on 5-HT7 receptor is less than 100 µM. In the same order, the values of `O=C1Nc2ccccc2C1CCCCN1CCN(c2ccc(Cl)cc2)CC1` (stereo not drawn) [Example 17, 3-{4-[4-(4-Chlorophenyl)-piperazin-1-yl]-butyl}-1,3-dihydro-2H-indol-2-one] are 136 to 137 °C and less than 100 µM. The matching figures for `O=C1Nc2ccccc2C1CCCCN1CCN(c2cccc(Cl)c2)CC1` (stereo not drawn) [Example 18, 3-{4-[4-(3-Chlorophenyl)-piperazin-1-yl]-butyl}-1,3-dihydro-2H-indol-2-one]: 112 to 114 °C and less than 100 µM. On to `O=C1Nc2ccc(F)cc2C1CCCCN1CCN(c2ccc(Cl)c(Cl)c2)CC1` (stereo not drawn) [Example 23, 3-{4-[4-(3,4-dichlorophenyl)-piperazine-1-yl]-butyl}-5-fluoro-1,3-dihydro-2H-indol-2-one], for which the melting point lay within 118 to 120 °C. Same read-out and setting: as for `O=C1Nc2ccccc2C1CCCCN1CCN(c2ccccc2)CC1` (stereo not drawn) [Example 24, 3-[4-(4-phenyl-piperazin-1-yl)-butyl]-1,3-dihydro-2H-indol-2-one], the figure is 110 to 113 °C.

(Values after patent publication US20070219209A1, “Piperazine Derivatives Of Alkyl Oxindoles” (GYÓGYSZERGYÁR RT., priority 2004, published 2007).)
